Test results from patent US20170216421A1, “MANUFACTURING OF MULTI-DOSE INJECTION READY DENDRITIC CELL VACCINES, COMBINATION THERAPIES FOR BLOCKING HER2 AND HER3, AND ESTROGEN RECEPTOR POSITIVE HER2 BREAST RECEPTOR POSITIVE HER2 BREAST CANCER THERAPY” (THE TRUSTEES OF THE UNIVERSITY OF PENNSYLVANIA, priority 2015, published 2017).

How the values were obtained:
[1] = tested on: MCF7 (HER2^neg 2+/ER^pos); experiment: Alamar Blue metabolic activity assay; assay type: cell-based, human; conditions: 72 hours
Procedure: (§1) Breast cancer cell lines, SKBR3 (HER2^pos/ER^neg) and MCF7 (HER2^neg 2+/ER^pos), were treated with Th1 cytokines (IFNγ and TNFα), a tamoxifen metabolite (4-hydroxytamoxifen, “4HT”), or both for 72 hours. Metabolic activity was measured via Alamar Blue assay.

[2] = tested on: SKBR3 (HER2^pos/ER^neg); experiment: Alamar Blue metabolic activity assay; assay type: cell-based, human; conditions: 72 hours
Procedure: as §1

[3] = tested on: BRAF^V600EPTEN^−/− melanoma; experiment: Transplantable melanoma model: tumor growth and survival; assay type: in vivo, mice; conditions: administered alone
Procedure: A transplantable BRAF^V600EPTEN^−/− melanoma model was developed in the C57Bl/6 background. DC1 were generated from bone marrow precursors using Flt3, IL-6, GM-CSF, IL-4, CpG and LPS, and pulsed with class I BRAF^V600E peptide. In addition to untreated and ovalbumin-DC1 controls, BRAF^V600E-DC1 (2× weekly injections) and PLX were administered alone or in designated combinations to tumor-bearing mice (n=10 each). Tumor growth and survival were determined.

Compound: 4-hydroxytamoxifen [4HT]
- anti-tumor activity / metabolic activity [1]: did not increase anti-tumor activity
- anti-tumor activity / metabolic activity [2]: not in response to anti-estrogen treatment

Compound: CCCS(=O)(=O)Nc1ccc(F)c(C(=O)c2c[nH]c3ncc(-c4ccc(Cl)cc4)cc23)c1F [PLX, vemurafenib]
- median survival [3]: 43.5 days
